Molecular target: T1, human M1 receptor (hCHRM1) (Homo sapiens, UniProt P11229)
T1 construct: expressed in transfected cells; host or cells: CHO-K1
T1 sequence (P11229 1-460): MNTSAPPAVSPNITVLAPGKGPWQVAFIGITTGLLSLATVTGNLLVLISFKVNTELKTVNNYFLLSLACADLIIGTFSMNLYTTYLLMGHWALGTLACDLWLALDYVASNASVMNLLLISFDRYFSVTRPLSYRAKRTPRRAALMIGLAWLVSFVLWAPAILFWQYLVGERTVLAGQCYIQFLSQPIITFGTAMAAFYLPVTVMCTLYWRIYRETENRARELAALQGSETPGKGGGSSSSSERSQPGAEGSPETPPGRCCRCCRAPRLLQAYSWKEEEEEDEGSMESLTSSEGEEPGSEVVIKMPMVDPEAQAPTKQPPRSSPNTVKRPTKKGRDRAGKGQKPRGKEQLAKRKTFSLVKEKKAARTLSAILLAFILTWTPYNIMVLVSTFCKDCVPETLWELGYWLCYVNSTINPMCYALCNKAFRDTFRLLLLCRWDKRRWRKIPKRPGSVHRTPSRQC
Test: Measurement of M1 receptor positive allosteric modulator (M1PAM) activity, calcium fluorescence (FLIPRtetra) in CHO-K1 cells in the presence of acetylcholine at EC20
Assay type: cell-based
Conditions: in the presence of acetylcholine at EC20 (final 0.6 nM), CHO-K1 cells expressing hCHRM1; for EC50: inflection point of M1PAM activity, read-out: IP value; for activity (%) at 10 μM: test compound 10 μM
Summary of the method: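 CHO-K1 cells expressing human M1 were loaded with Fluo-4 AM, and compound was added with acetylcholine at EC20 (final 0.6 nM). Calcium fluorescence was read on FLIPRtetra for 1 min. Activity was normalized to 1 μM acetylcholine (100%) and DMSO (0%), and the curve inflection point was reported as IP.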

Row | SMILES | EC50 | activity (%) at 10 μM
1 | Cc1nn(C)cc1-c1ccc(CN2Cc3ccnc(Oc4cc(C(C)(C)O)ccc4F)c3C2=O)cc1 [Example 312, 2-(4-(1,3-dimethyl-1H-pyrazol-4-yl)benzyl)-4-(2-fluoro-5-(2-hydroxypropan-2-yl)phenoxy)-1,2-dihydro-3H-pyrrolo[3,4-c]pyridin-3-one] | 39 nM | 96%
2 | O=C1c2c(ncnc2Oc2ccc(C(F)(F)F)cc2F)CN1Cc1ccc(-c2ccnnc2)cc1 [Example 313, 4-(2-fluoro-4-(trifluoromethyl)phenoxy)-6-(4-(pyridazin-4-yl)benzyl)-6,7-dihydro-5H-pyrrolo[3,4-d]pyrimidin-5-one] | 27 nM | 89%
3 | Cc1nn(C)cc1-c1ccc(CN2Cc3ncnc(OC4CCC4)c3C2=O)cc1 [Example 323, 4-(cyclobutyloxy)-6-(4-(1,3-dimethyl-1H-pyrazol-4-yl)benzyl)-6,7-dihydro-5H-pyrrolo[3,4-d]pyrimidin-5-one] | 21 nM | 89%
4 | CCn1cc(-c2ccc(CN3Cc4ncnc(OC5CCC5)c4C3=O)cc2)cn1 [Example 324, 4-(cyclobutyloxy)-6-(4-(1-ethyl-1H-pyrazol-4-yl)benzyl)-6,7-dihydro-5H-pyrrolo[3,4-d]pyrimidin-5-one] | 19 nM | 99%
5 | O=C1c2c(ccnc2OCC2CCCO2)CN1Cc1ccc(-c2ccnc(C(F)(F)F)c2)cc1 (stereo not drawn) [Example 325, 4-((tetrahydrofuran-2-yl)methoxy)-2-(4-(2-(trifluoromethyl)pyridin-4-yl)benzyl)-1,2-dihydro-3H-pyrrolo[3,4-c]pyridin-3-one] | 47 nM | 116%
6 | Cc1cc(-c2ccc(CN3Cc4ccnc(OCC5CCCO5)c4C3=O)cc2)cnn1 (stereo not drawn) [Example 326, 2-(4-(6-methylpyridazin-4-yl)benzyl)-4-((tetrahydrofuran-2-yl)methoxy)-1,2-dihydro-3H-pyrrolo[3,4-c]pyridin-3-one] | 23 nM | 108%
7 | Cn1cc(-c2ccc(CN3Cc4cccc(OCC5CCCO5)c4C3=O)c(F)c2)nn1 (stereo not drawn) [Example 330, 2-(2-fluoro-4-(1-methyl-1H-1,2,3-triazol-4-yl)benzyl)-7-((tetrahydrofuran-2-yl)methoxy)isoindolin-1-one] | 30 nM | 104%
8 | O=C1c2c(ccnc2OCC2CCCO2)CN1Cc1ccc(-c2cc[nH]n2)cc1 (stereo not drawn) [Example 333, 2-(4-(1H-pyrazol-3-yl)benzyl)-4-((tetrahydrofuran-2-yl)methoxy)-1,2-dihydro-3H-pyrrolo[3,4-c]pyridin-3-one] | 21 nM | 114%
9 | CC(Oc1nccc2c1C(=O)N(Cc1ccc(-c3cn(C)nn3)cc1F)C2)c1ccccc1F (stereo not drawn) [Example 334, 2-(2-fluoro-4-(1-methyl-1H-1,2,3-triazol-4-yl)benzyl)-4-(1-(2-fluorophenyl)ethoxy)-1,2-dihydro-3H-pyrrolo[3,4-c]pyridin-3-one] | 65 nM | 99%
10 | Cn1cc(-c2ccc(CN3Cc4ccnc(OC5CCC5)c4C3=O)cc2)nn1 [Example 335, 4-(cyclobutyloxy)-2-(4-(1-methyl-1H-1,2,3-triazol-4-yl)benzyl)-1,2-dihydro-3H-pyrrolo[3,4-c]pyridin-3-one] | 57 nM | 98%
11 | Cn1cc(-c2ccc(CN3Cc4ccnc(OCc5ccc(F)cc5F)c4C3=O)cc2)nn1 [Example 336, 4-((2,4-difluorobenzyl)oxy)-2-(4-(1-methyl-1H-1,2,3-triazol-4-yl)benzyl)-1,2-dihydro-3H-pyrrolo[3,4-c]pyridin-3-one] | 22 nM | 106%
12 | Cn1cc(-c2ccc(CN3Cc4ccnc(OCC5CC5)c4C3=O)cc2)nn1 [Example 337, 4-(cyclopropylmethoxy)-2-(4-(1-methyl-1H-1,2,3-triazol-4-yl)benzyl)-1,2-dihydro-3H-pyrrolo[3,4-c]pyridin-3-one] | 49 nM | 92%
13 | Cn1cc(-c2ccc(CN3Cc4ccnc(OC5CCC5)c4C3=O)c(F)c2)nn1 [Example 338, 4-(cyclobutyloxy)-2-(2-fluoro-4-(1-methyl-1H-1,2,3-triazol-4-yl)benzyl)-1,2-dihydro-3H-pyrrolo[3,4-c]pyridin-3-one] | 19 nM | 98%
14 | Cc1cc(-c2ccc(CN3Cc4ccnc(OCC5CC5)c4C3=O)cc2)ccn1 [Example 339, 4-(cyclopropylmethoxy)-2-(4-(2-methylpyridin-4-yl)benzyl)-1,2-dihydro-3H-pyrrolo[3,4-c]pyridin-3-one] | 70 nM | 106%
15 | Cc1nn(C)cc1-c1ccc(CN2Cc3ccnc(OCC4(C)CC4)c3C2=O)c(F)c1 [Example 341, 2-(4-(1,3-dimethyl-1H-pyrazol-4-yl)-2-fluorobenzyl)-4-((1-methylcyclopropyl)methoxy)-1,2-dihydro-3H-pyrrolo[3,4-c]pyridin-3-one] | 63 nM | 93%
16 | Cn1ccc(-c2ccc(CN3Cc4ccnc(OCc5ccccc5F)c4C3=O)c(F)c2)n1 [Example 342, 4-((2-fluorobenzyl)oxy)-2-(2-fluoro-4-(1-methyl-1H-pyrazol-3-yl)benzyl)-1,2-dihydro-3H-pyrrolo[3,4-c]pyridin-3-one] | 73 nM | 96%
17 | Cc1nn(C)cc1-c1ccc(CN2Cc3ccnc(OCc4ccccc4F)c3C2=O)c(F)c1 [Example 343, 2-(4-(1,3-dimethyl-1H-pyrazol-4-yl)-2-fluorobenzyl)-4-((2-fluorobenzyl)oxy)-1,2-dihydro-3H-pyrrolo[3,4-c]pyridin-3-one] | 29 nM | 94%
18 | Cc1cc(-c2ccc(CN3Cc4ccnc(OCc5ccccc5F)c4C3=O)c(F)c2)cnn1 [Example 344, 4-((2-fluorobenzyl)oxy)-2-(2-fluoro-4-(6-methylpyridazin-4-yl)benzyl)-1,2-dihydro-3H-pyrrolo[3,4-c]pyridin-3-one] | 55 nM | 97%

Now those with a lower EC50, led by results:

Row | EC50 | activity (%) at 10 μM | SMILES
19 | 16 nM | 100% | Cc1cc(-c2ccc(CN3Cc4ncnc(Oc5ccc(C(F)(F)F)cc5F)c4C3=O)cc2)cnn1 [Example 311, 4-(2-fluoro-4-(trifluoromethyl)phenoxy)-6-(4-(6-methylpyridazin-4-yl)benzyl)-6,7-dihydro-5H-pyrrolo[3,4-d]pyrimidin-5-one]
20 | 11 nM | 89% | Cn1ccc(-c2ccc(CN3Cc4ncnc(Oc5ccc(C(F)(F)F)cc5F)c4C3=O)cc2)n1 [Example 314, 4-(2-fluoro-4-(trifluoromethyl)phenoxy)-6-(4-(1-methyl-1H-pyrazol-3-yl)benzyl)-6,7-dihydro-5H-pyrrolo[3,4-d]pyrimidin-5-one]
21 | 6.5 nM | 98% | Cn1cc(-c2ccc(CN3Cc4ccnc(OCc5ccccc5F)c4C3=O)c(F)c2)nn1 [Example 327, 4-((2-fluorobenzyl)oxy)-2-(2-fluoro-4-(1-methyl-1H-1,2,3-triazol-4-yl)benzyl)-1,2-dihydro-3H-pyrrolo[3,4-c]pyridin-3-one]
22 | 4.3 nM | 106% | Cc1nn(C)cc1-c1ccc(CN2Cc3ccnc(OCc4ncccc4F)c3C2=O)c(F)c1 [Example 329, 2-(4-(1,3-dimethyl-1H-pyrazol-4-yl)-2-fluorobenzyl)-4-((3-fluoropyridin-2-yl)methoxy)-1,2-dihydro-3H-pyrrolo[3,4-c]pyridin-3-one]
23 | 16 nM | 104% | Cn1cc(-c2ccc(CN3Cc4ccnc(OCC5CC5)c4C3=O)c(F)c2)nn1 [Example 331, 4-(cyclopropylmethoxy)-2-(2-fluoro-4-(1-methyl-TH-1,2,3-triazol-4-yl)benzyl)-1,2-dihydro-3H-pyrrolo[3,4-c]pyridin-3-one]
24 | 17 nM | 106% | Cn1cc(-c2ccc(CN3Cc4ccnc(OCc5ccccc5F)c4C3=O)cc2)nn1 [Example 332, 4-((2-fluorobenzyl)oxy)-2-(4-(1-methyl-1H-1,2,3-triazol-4-yl)benzyl)-1,2-dihydro-3H-pyrrolo[3,4-c]pyridin-3-one]
25 | 3.8 nM | 106% | Cn1cc(-c2ccc(CN3Cc4ncnc(OCc5ccc(F)cc5F)c4C3=O)cc2)nn1 [Example 340, 4-((2,4-difluorobenzyl)oxy)-6-(4-(1-methyl-1H-1,2,3-triazol-4-yl)benzyl)-6,7-dihydro-5H-pyrrolo[3,4-d]pyrimidin-5-one]
26 | 2.1 nM | 85% | Cc1nn(C)cc1-c1ccc(CN2Cc3ccnc(OC4CCc5cccnc54)c3C2=O)c(F)c1 (stereo not drawn) [Example 346, 4-(6,7-dihydro-5H-cyclopenta[b]pyridin-7-yloxy)-2-(4-(1,3-dimethyl-1H-pyrazol-4-yl)-2-fluorobenzyl)-1,2-dihydro-3H-pyrrolo[3,4-c]pyridin-3-one]
27 | 10 nM | 97% | Cc1nn(C)cc1-c1ccc(CN2Cc3ccnc(OCC(F)(F)c4ccccn4)c3C2=O)c(F)c1 [Example 347, 4-(2,2-difluoro-2-(pyridin-2-yl)ethoxy)-2-(4-(1,3-dimethyl-1H-pyrazol-4-yl)-2-fluorobenzyl)-1,2-dihydro-3H-pyrrolo[3,4-c]pyridin-3-one]

Source: patent US9777005B2 (Takeda Pharmaceutical Company Limited, priority 2012, dated 2017)
